The source of these data is patent US9096593B2, “Compounds and methods for kinase modulation, and indications therefor” (Plexxikon Inc., priority 2009, dated 2015).

Each structure is given as a SMILES string. Like-named read-outs stand apart in the source and are kept apart here.

One data set deals with c-Kit kinase (Homo sapiens (Human), UniProt P10721). The data set can be described thus: c-Kit kinase biochemical activity assay (AlphaScreen, biotin-(E4Y)10 phosphorylation). (Alpha assays give light when donor and acceptor beads are brought close together.)
The target of a further data set is BCR-FMS/BaF3 cells (Homo sapiens, UniProt P07333). The data set can be described thus: BCR-FMS/BaF3 cell proliferation assay (ATPlite). The format is cell-based. The conditions noted are these: for BCR/BaF3 selectivity (Kit IC50/Fms IC50): Kit IC50/Fms IC50, BCR-KIT/BaF3 vs BCR-FMS/BaF3 cells; for IC50: BCR-FMS/BaF3 cells. Put shortly:
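Proliferation read by ATPlite luminescence after 3 days' exposure (37 °C, 5% CO2) to compound in 1:3 dilutions, eight points, maximum 10 μM final, DMSO control.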
A general note: In ATP-based viability assays light output follows the ATP content of the culture.

The target of another data set is CYP3A4(BFC) (Homo sapiens (Human), UniProt P08684). The experiment in a line: CYP enzyme inhibition, fluorescent substrate. Put shortly:
(§1)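 […]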

The next data set has as its target CYP2C9 (Homo sapiens (Human), UniProt P11712). The experiment in a line: CYP enzyme inhibition, fluorescent substrate. Put shortly:
as §1

In a further data set the target is CYP2D6 (Homo sapiens (Human), UniProt P10635). The data set can be described thus: CYP enzyme inhibition, fluorescent substrate. The note with it: read-out: Cyp IC50 (μM) 2D6.
The target in another data set is CYP1A2 (Homo sapiens (Human), UniProt P05177). The experiment in a line: CYP enzyme inhibition, fluorescent substrate. The conditions noted are these: human, 15 min.
For the next data set, the target named is CYP3A4(BQ) (Homo sapiens (Human), UniProt P08684). The data set can be described thus: CYP enzyme inhibition, fluorescent substrate. Put shortly: as §1
Setting [1] is: read-out: BCR/BaF3 (IC50 μM) Fms.
Setting [2] is: human, CYP2C9 enzyme (BD Biosciences), 45 min.
Setting [3] is: read-out: Cyp IC50 (μM) 3A4(BQ), BQ substrate.
Setting [4] is: read-out: Cyp IC50 (μM) 3A4(BFC), BFC substrate.

Sequence of BCR-FMS/BaF3 cells (P07333 20-972 limits assumed, change not shown): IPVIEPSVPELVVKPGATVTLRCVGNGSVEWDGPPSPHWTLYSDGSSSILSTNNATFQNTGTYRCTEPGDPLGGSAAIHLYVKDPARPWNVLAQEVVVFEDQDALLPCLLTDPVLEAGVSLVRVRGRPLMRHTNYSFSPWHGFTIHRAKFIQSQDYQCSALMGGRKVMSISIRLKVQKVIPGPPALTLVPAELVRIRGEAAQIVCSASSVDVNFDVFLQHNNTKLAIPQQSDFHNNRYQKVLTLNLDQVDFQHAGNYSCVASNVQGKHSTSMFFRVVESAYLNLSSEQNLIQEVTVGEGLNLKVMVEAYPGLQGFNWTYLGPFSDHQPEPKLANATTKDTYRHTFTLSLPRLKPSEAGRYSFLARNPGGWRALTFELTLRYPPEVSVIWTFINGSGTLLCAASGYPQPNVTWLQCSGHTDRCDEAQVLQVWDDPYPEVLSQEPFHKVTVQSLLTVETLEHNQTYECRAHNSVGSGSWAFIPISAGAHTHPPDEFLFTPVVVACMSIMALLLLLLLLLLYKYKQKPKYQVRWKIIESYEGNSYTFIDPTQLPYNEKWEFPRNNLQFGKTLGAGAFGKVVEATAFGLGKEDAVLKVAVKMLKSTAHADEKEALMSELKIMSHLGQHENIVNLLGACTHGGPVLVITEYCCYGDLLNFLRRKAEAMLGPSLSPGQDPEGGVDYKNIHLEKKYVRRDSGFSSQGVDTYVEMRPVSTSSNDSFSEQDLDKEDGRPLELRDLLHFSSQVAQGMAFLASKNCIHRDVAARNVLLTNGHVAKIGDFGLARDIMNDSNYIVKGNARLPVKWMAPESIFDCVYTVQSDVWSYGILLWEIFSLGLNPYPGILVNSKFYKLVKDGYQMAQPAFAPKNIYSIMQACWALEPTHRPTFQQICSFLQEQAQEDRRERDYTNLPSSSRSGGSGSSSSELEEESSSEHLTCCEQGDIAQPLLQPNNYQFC
Sequence of CYP3A4(BQ) (P08684 whole entry): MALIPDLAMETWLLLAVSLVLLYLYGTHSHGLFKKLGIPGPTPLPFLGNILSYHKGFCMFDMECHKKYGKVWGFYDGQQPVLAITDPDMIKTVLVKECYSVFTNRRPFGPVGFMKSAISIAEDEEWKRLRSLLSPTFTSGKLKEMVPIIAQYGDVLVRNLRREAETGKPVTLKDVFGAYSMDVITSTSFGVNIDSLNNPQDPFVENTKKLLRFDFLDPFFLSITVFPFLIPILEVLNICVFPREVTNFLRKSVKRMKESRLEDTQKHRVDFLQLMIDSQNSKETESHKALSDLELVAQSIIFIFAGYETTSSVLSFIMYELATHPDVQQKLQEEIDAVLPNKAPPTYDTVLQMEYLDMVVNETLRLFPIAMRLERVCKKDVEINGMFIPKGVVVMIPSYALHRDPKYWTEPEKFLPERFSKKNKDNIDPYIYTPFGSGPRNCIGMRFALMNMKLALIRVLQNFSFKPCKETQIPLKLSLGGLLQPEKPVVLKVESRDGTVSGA
Sequence of CYP3A4(BFC) (P08684 whole entry): as above
Sequence of CYP2D6 (P10635 whole entry): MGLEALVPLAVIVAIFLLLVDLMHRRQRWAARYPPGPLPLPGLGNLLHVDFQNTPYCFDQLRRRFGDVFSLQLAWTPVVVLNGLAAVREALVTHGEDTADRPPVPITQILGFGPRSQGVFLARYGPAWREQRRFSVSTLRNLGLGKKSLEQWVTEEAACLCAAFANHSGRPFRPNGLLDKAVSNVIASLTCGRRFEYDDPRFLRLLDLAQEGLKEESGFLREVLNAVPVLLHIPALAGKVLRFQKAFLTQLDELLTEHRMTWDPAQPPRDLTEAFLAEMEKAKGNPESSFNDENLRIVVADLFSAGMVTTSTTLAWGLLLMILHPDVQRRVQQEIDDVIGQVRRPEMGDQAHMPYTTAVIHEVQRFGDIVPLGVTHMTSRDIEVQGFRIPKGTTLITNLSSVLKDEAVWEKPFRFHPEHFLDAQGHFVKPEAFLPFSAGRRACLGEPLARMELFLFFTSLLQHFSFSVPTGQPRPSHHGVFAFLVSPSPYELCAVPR
Sequence of CYP1A2 (P05177 whole entry): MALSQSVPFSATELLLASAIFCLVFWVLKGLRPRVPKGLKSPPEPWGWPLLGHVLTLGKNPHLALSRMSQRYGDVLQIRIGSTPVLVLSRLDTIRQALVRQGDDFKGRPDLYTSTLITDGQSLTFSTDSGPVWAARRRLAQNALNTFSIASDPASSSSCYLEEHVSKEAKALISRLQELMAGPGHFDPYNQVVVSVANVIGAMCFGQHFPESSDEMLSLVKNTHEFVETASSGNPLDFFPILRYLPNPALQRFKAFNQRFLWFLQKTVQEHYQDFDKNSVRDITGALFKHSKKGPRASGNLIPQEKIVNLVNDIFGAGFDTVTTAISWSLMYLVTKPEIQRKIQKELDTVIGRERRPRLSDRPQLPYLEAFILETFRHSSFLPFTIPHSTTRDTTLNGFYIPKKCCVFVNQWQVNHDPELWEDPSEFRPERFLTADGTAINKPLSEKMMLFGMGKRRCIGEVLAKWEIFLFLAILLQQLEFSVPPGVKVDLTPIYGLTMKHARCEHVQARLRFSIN
Sequence of CYP2C9 (P11712 whole entry): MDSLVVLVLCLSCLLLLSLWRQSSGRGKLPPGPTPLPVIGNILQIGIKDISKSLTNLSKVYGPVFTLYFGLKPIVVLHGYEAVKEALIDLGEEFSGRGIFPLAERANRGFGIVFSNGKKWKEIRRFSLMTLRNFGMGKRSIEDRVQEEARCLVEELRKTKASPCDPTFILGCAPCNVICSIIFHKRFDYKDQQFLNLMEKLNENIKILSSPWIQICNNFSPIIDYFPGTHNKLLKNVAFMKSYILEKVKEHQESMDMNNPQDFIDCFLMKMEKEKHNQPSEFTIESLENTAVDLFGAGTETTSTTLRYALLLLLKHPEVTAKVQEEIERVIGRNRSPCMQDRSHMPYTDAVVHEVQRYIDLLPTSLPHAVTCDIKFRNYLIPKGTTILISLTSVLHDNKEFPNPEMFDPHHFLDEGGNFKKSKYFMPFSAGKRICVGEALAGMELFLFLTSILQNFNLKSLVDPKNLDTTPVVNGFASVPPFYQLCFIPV
Sequence of c-Kit kinase (P10721 26-976): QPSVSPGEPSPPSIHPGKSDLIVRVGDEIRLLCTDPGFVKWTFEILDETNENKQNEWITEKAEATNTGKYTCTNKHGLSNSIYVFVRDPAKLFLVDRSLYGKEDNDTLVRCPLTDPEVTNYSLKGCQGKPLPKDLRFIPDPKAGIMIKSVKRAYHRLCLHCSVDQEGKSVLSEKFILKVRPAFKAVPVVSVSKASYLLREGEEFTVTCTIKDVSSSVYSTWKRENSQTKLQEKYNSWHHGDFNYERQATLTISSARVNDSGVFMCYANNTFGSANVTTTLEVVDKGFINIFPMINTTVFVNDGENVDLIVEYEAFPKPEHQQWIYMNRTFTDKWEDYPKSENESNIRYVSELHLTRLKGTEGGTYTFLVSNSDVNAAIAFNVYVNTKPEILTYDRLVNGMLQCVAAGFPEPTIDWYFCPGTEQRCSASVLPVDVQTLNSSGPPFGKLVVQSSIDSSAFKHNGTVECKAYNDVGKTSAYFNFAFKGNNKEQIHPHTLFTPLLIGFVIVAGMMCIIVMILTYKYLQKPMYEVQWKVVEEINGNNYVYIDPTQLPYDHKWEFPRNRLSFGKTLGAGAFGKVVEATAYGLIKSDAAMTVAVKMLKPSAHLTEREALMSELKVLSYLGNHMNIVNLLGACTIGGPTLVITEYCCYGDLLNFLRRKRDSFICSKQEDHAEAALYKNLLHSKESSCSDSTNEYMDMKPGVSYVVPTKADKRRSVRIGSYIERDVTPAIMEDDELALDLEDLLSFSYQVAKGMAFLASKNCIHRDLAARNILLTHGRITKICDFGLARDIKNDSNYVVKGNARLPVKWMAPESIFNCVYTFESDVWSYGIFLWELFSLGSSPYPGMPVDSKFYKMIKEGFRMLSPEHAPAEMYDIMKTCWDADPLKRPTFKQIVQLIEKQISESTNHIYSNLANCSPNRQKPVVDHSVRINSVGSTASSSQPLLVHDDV

As to `COc1ccc(CNc2ccc(Cc3c[nH]c4ncc(C)cc34)c(F)n2)c(OC)n1` [Compound P-2097, (2,6-Dimethoxy-pyridin-3-ylmethyl)-[6-fluoro-5-(5-methyl-1H-pyrrolo[2,3-b]pyridin-3-ylmethyl)-pyridin-2-yl]-amine], the IC50 against c-Kit kinase was greater than 0.1 µM; at BCR-FMS/BaF3 cells (setting [1]), less than 0.1 µM; against CYP3A4(BFC), 5 to 10 µM; on CYP2C9 (setting [2]), less than 5 µM; at CYP2D6 it was greater than 10 µM; at CYP1A2 it was greater than 10 µM. Also, the IC50 at CYP3A4(BQ) is 5 to 10 µM. Besides, the “BCR/BaF3 selectivity (Kit IC50/Fms IC50)” value on BCR-FMS/BaF3 cells was greater than 20.
In the case of `Cc1cnc2[nH]cc(Cc3ccc(NCc4cccnc4F)nc3F)c2c1` [Compound P-2103, [6-Fluoro-5-(5-methyl-1H-pyrrolo[2,3-b]pyridin-3-ylmethyl)-pyridin-2-yl]-(2-fluoro-pyridin-3-ylmethyl)-amine], the IC50 on c-Kit kinase is greater than 0.1 µM; on BCR-FMS/BaF3 cells (setting [1]), less than 0.1 µM; on CYP3A4(BFC), 5 to 10 µM; at CYP2C9 (read-out: Cyp IC50 (μM) 2C9), less than 5 µM; at CYP2D6 it was greater than 10 µM; against CYP1A2 it was greater than 10 µM. Also, on CYP3A4(BQ), the IC50 lay in the range of 5 to 10 µM. Further, the “BCR/BaF3 selectivity (Kit IC50/Fms IC50)” value at BCR-FMS/BaF3 cells is less than 20.
Consider `Cc1cnc2[nH]cc(Cc3ccc(NCc4ccnc(F)c4)nc3F)c2c1` [Compound P-2118, [6-Fluoro-5-(5-methyl-1H-pyrrolo[2,3-b]pyridin-3-ylmethyl)-pyridin-2-yl]-(2-fluoro-pyridin-4-ylmethyl)-amine], for which the IC50 on c-Kit kinase is greater than 0.1 µM; on BCR-FMS/BaF3 cells (setting [1]), less than 0.1 µM; against CYP3A4(BFC) it was 5 to 10 µM; against CYP2C9 it was 5 to 10 µM; on CYP2D6, greater than 10 µM; against CYP1A2, greater than 10 µM. Besides, the IC50 at CYP3A4(BQ) (setting [3]) is greater than 10 µM. In addition, the “BCR/BaF3 selectivity (Kit IC50/Fms IC50)” value at BCR-FMS/BaF3 cells is reported as greater than 20.
On to `COc1ncccc1CNc1ncc(Cc2c[nH]c3ncc(C)cc23)cn1` [Compound P-2139, (2-Methoxy-pyridin-3-ylmethyl)-[5-(5-methyl-1H-pyrrolo[2,3-b]pyridin-3-ylmethyl)-pyrimidin-2-yl]-amine], for which the IC50 on c-Kit kinase is greater than 0.1 µM; at BCR-FMS/BaF3 cells (setting [1]), greater than 0.1 µM; on CYP3A4(BFC), 5 to 10 µM; at CYP2C9, 5 to 10 µM; on CYP2D6, greater than 10 µM; on CYP1A2, greater than 10 µM. Also, the IC50 on CYP3A4(BQ) (setting [3]) is greater than 10 µM. Further, the “BCR/BaF3 selectivity (Kit IC50/Fms IC50)” value on BCR-FMS/BaF3 cells is reported as less than 20.
Consider `Cc1cnc2[nH]cc(Cc3cnc(NCc4ccc(C(F)(F)F)nc4)c(F)c3)c2c1` [Compound P-2146, [3-Fluoro-5-(5-methyl-1H-pyrrolo[2,3-b]pyridin-3-ylmethyl)-pyridin-2-yl]-(6-trifluoromethyl-pyridin-3-ylmethyl)-amine], for which the IC50 was less than 0.1 µM on c-Kit kinase; less than 0.1 µM at BCR-FMS/BaF3 cells (setting [1]); greater than 10 µM at CYP3A4(BFC) (setting [4]); 5 to 10 µM against CYP2C9; greater than 10 µM at CYP2D6; greater than 10 µM on CYP1A2. At CYP3A4(BQ) (setting [3]), the IC50 was greater than 10 µM. Also, the “BCR/BaF3 selectivity (Kit IC50/Fms IC50)” value at BCR-FMS/BaF3 cells is on record as less than 20.
For the compound `COc1cnc2[nH]cc(Cc3cnc(NCc4ccc(C(F)(F)F)nc4)c(F)c3)c2c1` [Compound P-2147, [3-Fluoro-5-(5-methoxy-1H-pyrrolo[2,3-b]pyridin-3-ylmethyl)-pyridin-2-yl]-(6-trifluoromethyl-pyridin-3-ylmethyl)-amine], the IC50 against c-Kit kinase is less than 0.1 µM; at BCR-FMS/BaF3 cells (setting [1]), less than 0.1 µM; against CYP3A4(BFC) it was 5 to 10 µM; on CYP2C9 (read-out: Cyp IC50 (μM) 2C9), greater than 10 µM; at CYP2D6 it was greater than 10 µM; against CYP1A2, greater than 10 µM. This compound also came in with an IC50 against CYP3A4(BQ) of 5 to 10 µM. Moreover, at BCR-FMS/BaF3 cells, the “BCR/BaF3 selectivity (Kit IC50/Fms IC50)” value was less than 20.
In the case of `Cn1cc(F)cc(CNc2ncc(Cc3c[nH]c4ncc(Cl)cc34)cn2)c1=O` [Compound P-2157, 3-{[5-(5-Chloro-1H-pyrrolo[2,3-b]pyridin-3-ylmethyl)-pyrimidin-2-ylamino]-methyl}-5-fluoro-1-methyl-1H-pyridin-2-one], the IC50 against c-Kit kinase is greater than 0.1 µM; on BCR-FMS/BaF3 cells (setting [1]), less than 0.1 µM; against CYP3A4(BFC) it was 5 to 10 µM; against CYP2C9 (setting [2]), greater than 10 µM; on CYP2D6, greater than 10 µM; against CYP1A2, greater than 10 µM. Besides, the IC50 at CYP3A4(BQ) (setting [3]) is greater than 10 µM. In addition, the “BCR/BaF3 selectivity (Kit IC50/Fms IC50)” value at BCR-FMS/BaF3 cells was greater than 20.
`COc1ncc(CNc2ccc(Cc3c[nH]c4ncc(Cl)cc34)c(F)n2)cc1F` [Compound P-2165, [5-(5-Chloro-1H-pyrrolo[2,3-b]pyridin-3-ylmethyl)-6-fluoro-pyridin-2-yl]-(5-fluoro-6-methoxy-pyridin-3-ylmethyl)-amine]: the IC50 against c-Kit kinase is greater than 0.1 µM; on BCR-FMS/BaF3 cells (setting [1]) it was less than 0.1 µM; on BCR-FMS/BaF3 cells (read-out: Cell based (IC50 μM) BCR/BaF3 (Fms), 3 days) it was less than 0.1 µM; on CYP3A4(BFC) (setting [4]) it was greater than 10 µM; on CYP2C9 (read-out: Cyp IC50 (μM) 2C9) it was greater than 10 µM; at CYP2D6, greater than 10 µM. Also, the IC50 on CYP1A2 and on CYP3A4(BQ) (setting [3]) was greater than 10 µM throughout. Besides, the “BCR/BaF3 selectivity (Kit IC50/Fms IC50)” value at BCR-FMS/BaF3 cells is recorded as greater than 20.
